Results on 75 compounds are retold here after PubChem BioAssay AID1648 (Sanford-Burnham Center for Chemical Genomics, 2009).

The source made the active and inactive calls. The rule behind the calls is not given here.

For this assay, the target named is Serine/threonine-protein kinase mTOR (Homo sapiens) (UniProt P42345). Briefly: binders of mTOR FRB domain, biophysical, NMR (AID 1648). The settings on record: NMR binding to FRB domain, chemical shift.
Sequence of Serine/threonine-protein kinase mTOR (Homo sapiens) (P42345 2015-2114): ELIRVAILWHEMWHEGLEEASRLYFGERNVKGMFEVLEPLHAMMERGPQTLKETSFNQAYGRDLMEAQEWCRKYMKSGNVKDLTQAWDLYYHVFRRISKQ
As for `COc1cc2c(cc1OC)C1=C(C#N)CCC(=O)N1CC2`, the Kd (usually the free concentration of one partner at which half of the binding sites on the other are occupied at equilibrium, for simple one-to-one binding) is > 4 mM (inactive).

Turning to `O=C1CSC(c2ccc3c(c2)OCO3)N1` (stereo not given), the Kd is > 4 mM (inactive). As for `CC(=O)c1c(C)nc(-c2ccc(Cl)cc2Cl)n1O`, the figure is > 4 mM (inactive); as for `CN(C)C(=O)N1CCN(C(=O)c2ccco2)CC1`, > 4 mM (inactive). Under `NC1CS(=O)(=O)CC1O` (stereo not given) stands > 4 mM (inactive); under `Cc1ccc(-n2[nH]c(C)cc2=O)cc1`, > 4 mM (inactive); under `COCc1cc(=O)oc2cc(N)ccc12`, > 4 mM (inactive). As for `Cc1cc(OC(=O)c2c(C)cc(O)cc2O)cc(O)c1C(=O)O`, the figure is > 4 mM (inactive). `O=C1CSC(=S)N1Cc1cccnc1`: the Kd is > 4 mM (inactive). With `C/C=C/c1ccc2c(c1)OCO2`, the Kd is > 4 mM (inactive). For `Cc1ccc(C(=O)CS(C)(=O)=O)cc1`, the Kd is > 4 mM (inactive). Take `NC(=O)CCn1ncc2ccccc21`: the Kd was > 4 mM (inactive). As for `Nc1ccn(C2O[C@H](CO)[C@@H](O)[C@H]2O)c(=O)n1` (stereo not given in full), the figure is > 4 mM (inactive); as for `CC(=O)c1cnc2nc(C(F)(F)F)nn2c1C`, > 4 mM (inactive); as for `COc1ccc(N2C(=O)CCC2=O)c(OC)c1`, > 4 mM (inactive). For `COC1=CC23CCCN2CCc2cc4c(cc2C3C1O)OCO4` (stereo not given), the Kd was > 4 mM (inactive).

With `Cc1ccc2[nH]c3nc(=S)[nH]nc3c2c1`, the Kd was > 4 mM (inactive). For `COc1ccccc1C(=O)Nc1ccccn1`, the Kd is > 4 mM (inactive). As to `OCC1COc2ccccc2C1` (stereo not given), the Kd is > 4 mM (inactive).

Turning to `COc1ccc(-c2coc3c(O)c(OC)ccc3c2=O)cc1`, the Kd is > 4 mM (inactive).

On to `O=c1[nH]cc(NC(=S)N2CCOCC2)c(=O)[nH]1`, for which the Kd was > 4 mM (inactive). `O=S1(=O)CCC(N2CCCCC2)C1` (stereo not given): the Kd was > 4 mM (inactive). Regarding `O=C(O)c1ccccc1N1CCOCC1`, the Kd was > 4 mM (inactive). Consider `N#Cc1sc2nc3c(c(-c4cccnc4)c2c1N)CCC3`, for which the Kd was > 4 mM (inactive). Take `Cc1ccc(C(=O)NCCO)c(Cl)c1`: the Kd was > 4 mM (inactive). As for `O=S1(=O)CCC(NCc2ccccc2)C1` (stereo not given), the figure is > 4 mM (inactive); as for `CN1CCCC1C(=O)O` (stereo not given), > 4 mM (inactive); as for `CN(C)C1CCS(=O)(=O)C1` (stereo not given), > 4 mM (inactive). In the case of `Cc1cc2ncn(S(=O)(=O)N3CCOCC3)c2cc1C`, the Kd is > 4 mM (inactive). For `NC(=S)NC(=O)CN1C(=O)c2ccccc2C1=O`, the Kd is > 4 mM (inactive). For `CN1CCN(c2ccc(C(=O)O)cc2)CC1`, the Kd was > 4 mM (inactive). Consider `CCNCC(O)c1ccc([N+](=O)[O-])cc1` (stereo not given), for which the Kd is > 4 mM (inactive). As to `O=C(Nc1ccncc1)Nc1ccc(F)cc1F`, the Kd was > 4 mM (inactive). With `NC(=O)NC(=O)Nc1ccc(Cl)cc1`, the Kd is > 4 mM (inactive). Regarding `OCc1ccc(-c2ccccn2)s1`, the Kd was > 4 mM (inactive). For `Cn1cnc2c(Cl)ncnc21`, the Kd was > 4 mM (inactive).

With `O=C(O)C(CO)c1ccccc1` (stereo not given), the Kd is > 4 mM (inactive). In the case of `CCn1c(C)c(C(C)=O)c(N2CCOCC2)nc1=S`, the Kd is > 4 mM (inactive). As for `CCOc1ccc2ccccc2c1C(=O)N1CCOCC1`, the Kd is > 4 mM (inactive).

As for `CC1=NN(C(N)=S)C(C)(C)C1`, the Kd was > 4 mM (inactive). As to `COc1ccc2c(c1)OCc1c-2oc2cc(OC)ccc12`, the Kd was > 4 mM (inactive). Turning to `CC(=O)OC1CCC23CC1(C)CCC2C(C)(C)CC3OC(C)=O` (stereo not given), the Kd was > 4 mM (inactive). `O=c1nc(NCc2ccco2)sc2ncccc12`: the Kd was > 4 mM (inactive). Consider `Nc1nnc(SCc2cccnc2)s1`, for which the Kd is > 4 mM (inactive). On to `CC(=O)O[C@H]1CCC2(C)C3=C(CCC2C1(C)C)[C@@]1(C)CC[C@@H](C(C)CCC=C(C)C)[C@]1(C)CC3` (stereo not given in full), for which the Kd is > 4 mM (inactive). With `c1ccc(-c2csc3ncn4nnnc4c23)cc1`, the Kd is > 4 mM (inactive). As for `OCc1ccc(-n2cncn2)cc1`, the figure is > 4 mM (inactive); as for `NC(=O)c1ccsc1NC(=O)c1ccco1`, > 4 mM (inactive); as for `O=c1ccnc(Nc2ccccc2O)[nH]1`, > 4 mM (inactive). For the compound `C[C@@H]1OC(O[C@H]2C(O[C@H]3CC[C@@]4(C)C(CC[C@]5(C)C4CC=C4C6CC(C)(C)CC[C@]6(C(=O)O)CC[C@]45C)[C@]3(C)CO)OC[C@H](O)[C@@H]2O)[C@H](O)[C@H](O)[C@H]1O` (stereo not given in full), the Kd was > 4 mM (inactive). Under `O=C(c1ccncc1)N1CCN(C(=O)c2ccncc2)CC1` stands > 4 mM (inactive); under `CC1=CC(=O)CC(C)(C)C1(O)/C=C/C(C)=C\C(=O)O` (stereo not given), > 4 mM (inactive); under `O=S(=O)(N1CCCCC1)n1nnc2ccccc21`, > 4 mM (inactive).

As to `Cc1cc2nc(SCC(=O)O)nc(C)c2cc1C`, the Kd is > 4 mM (inactive). With `COc1ccc(S(=O)(=O)N2CCC(C(N)=O)CC2)cc1`, the Kd was > 4 mM (inactive). In the case of `CN1CCN(CC(=O)Nc2ccccc2)CC1`, the Kd is > 4 mM (inactive).

Take `C=CCNC(=O)c1ccc(Cl)cc1Cl`: the Kd was > 4 mM (inactive).

`N#CCN1C(=O)c2ccccc2S1(=O)=O`: the Kd is > 4 mM (inactive). Regarding `COc1ccc(C(=O)/C=C2\NC(=S)NC2=O)cc1`, the Kd is > 4 mM (inactive). In the case of `Cc1ccc(C(=O)Nn2cnnc2)s1`, the Kd is > 4 mM (inactive).

`NC(=O)c1ccccc1NC(=O)C1CC1`: the Kd was > 4 mM (inactive).

Regarding `NC(CCC(=O)Nc1ccc([N+](=O)[O-])cc1)C(=O)O` (stereo not given), the Kd was > 4 mM (inactive). Turning to `NCc1csc2ccccc12`, the Kd was > 4 mM (inactive). Take `OC1CC2CCC1C2` (stereo not given): the Kd is > 4 mM (inactive). Under `CCCCCC/C=C\CCCCCCCc1cccc(O)c1C(=O)O` stands > 4 mM (inactive); under `Cn1c(=O)c2cn3ncccc3c2n(C)c1=O`, > 4 mM (inactive); under `CC(=O)OC1CCC2(C)C3CC(=O)C4(C)C(CC5OC6(CCC(C)CO6)[C@@H](C)C54)C3CC[C@H]2C1` (stereo not given in full), > 4 mM (inactive). Under `CC(C)CC(=O)Nc1c[nH]c(=O)[nH]c1=O` stands > 4 mM (inactive); under `C=CCn1c(-c2ccc(O)cc2)n[nH]c1=S`, > 4 mM (inactive); under `Cc1cc(C)n(-c2nc(N)cc(=O)[nH]2)n1`, > 4 mM (inactive). As for `COc1ccc2c(c1O)-c1c(OC)c(OC)cc3c1[C@H](C2)N(C)CC3`, the Kd is > 4 mM (inactive). Regarding `CCC(=O)Oc1ccc(N2C(=O)CCC2=O)cc1`, the Kd is > 4 mM (inactive). Take `COC(=O)c1cc(-c2c[nH]c3ccccc23)n[nH]1`: the Kd is > 4 mM (inactive).

Consider `CC1(C)C=CC(=O)[C@@]2(C)C1CC(=O)[C@]1(C)C2CC[C@@]2(C)[C@H](c3ccoc3)OC(=O)C3OC321` (stereo not given in full), for which the Kd is > 4 mM (inactive). With `CS(=O)(=O)c1cccc(C(=O)Nc2nccs2)c1`, the Kd is > 4 mM (inactive).
